Data on ten compounds can be found in publication PMC2635431 (Journal of pharmaceutical sciences, 2009).

The subject of data set [1] is human epidermal membrane (HEM). Nature of the data set: Passive transport of corticosterone. Type of data set: in vitro ADME. Particulars: CS lipoidal pathway permeability vs PBS control (Eq. 3).
The test system of data set [2] is human epidermal membrane (HEM). Nature of the data set: Evaluation of direct enhancer treatment time on CS permeability of HEM. It is filed as in vitro ADME. The conditions noted are these: direct treatment 1, 4, 20 min; p > 0.05, t-test.
The subject of data set [3] is human epidermal membrane (HEM). Nature of the data set: Enhancer depletion and recovery of HEM barrier. Type of data set: in vitro ADME. Particulars: Protocol II, enhancer depletion in PBS.
Data set [4] is described as follows: Corticosterone solubility in enhancer-PBS solution relative to PBS. Particulars: enhancer concentration of Protocol I, 37°C.
For data set [5] the following is noted: experimental, from the literature; cited from earlier work.

`CCCCCCCCCCCCN1CCCC1=O` [DoP, 1-Dodecyl-2-pyrrolidinone]: the “Enhancement Ratio (Emax)” value in data set [1] (Protocol III) was 14 ± 6.

Regarding `CCCCCCCCCCCCCC(=O)OC(C)C` [IPM, Propan-2-yl tetradecanoate], the figures for the “Enhancement Ratio (Emax)” value in data set [1] (Protocol II) and in data set [1] (Protocol III) were 2.8 ± 0.2 and 3.3 ± 1.1, respectively. Besides, in data set [2], the “effect of treatment time on permeability coefficients of CS” value (from here on “effect of treatment time”) is “did not significantly affect”.

For `CCCCC(CC)COC(=O)c1ccc(N(C)C)cc1` (centres unmarked) [PADO, 2-Ethylhexyl 4-(dimethylamino) benzoate], the “Enhancement Ratio (Emax)” value in data set [1] (Protocol II) amounted to 4.1 ± 0.7; in data set [1] (Protocol III), 3.8 ± 1.1. The “effect of treatment time” value in data set [2] was “did not significantly affect”.

As for `CCCCC(CC)COC(=O)c1ccccc1O` (centres unmarked) [OS, 2-Ethylhexyl 2-hydroxybenzoate], the “Enhancement Ratio (Emax)” value in data set [1] (Protocol II) was found to be 5.0 ± 3.6. In data set [2], the “effect of treatment time” value is “did not significantly affect”.

As to `OCCOc1ccccc1` [PHE, 2-Phenoxy-1-ethanol], in data set [3], the “time for HEM permeability to return to the PBS control value” (shortened to “time for HEM permeability to return”) was “less than 2 h”.

Turning to `COc1ccc(O)c(C(C)(C)C)c1` [BHA, 1,1-Dimethylethyl-4-methoxy phenol], in data set [4], the “CS Solubility Ratio (enhancer/PBS solution vs PBS)” value is on record as 1.16 ± 0.03. Also, the “log Koct” value in data set [5] was 3.14 ^b^53.

Regarding `CCCCCCCCCCCO` [UD, Undecan-1-ol], the “Enhancement Ratio (Emax)” value in data set [1] (Protocol II) was 17 ± 2. The “effect of treatment time” value in data set [2] is “did not significantly affect”.

In the case of `CCCCCCCCN1CCCC1=O` [OP, 1-Octyl-2-pyrrolidinone], the “time for HEM permeability to return” value in data set [3] is listed as “approximately 6 h”. Further, in data set [1] (Protocol III), the “Enhancement Ratio (Emax)” value is on record as 16 ± 6.

Take `CCCCCCCC/C=C\CCCCCCCCO` [OA, (Z)-Octadec-9-en-1-ol]: the “Enhancement Ratio (Emax)” value in data set [1] (Protocol II) stood at 5.5 ± 1.5. The “effect of treatment time” value in data set [2] was “did not significantly affect”.

Consider `CCCCCCCCO` [OC, 1-Octanol], for which the “time for HEM permeability to return” value in data set [3] is on record as “approximately 6 h”. The “Enhancement Ratio (Emax)” value in data set [1] (Protocol III) stood at 18 ± 2.
